# Measurements taken from patent publication US11377427B2, “Triazoles for regulating intracellular calcium homeostasis” (UNIVERSIDAD DEL PAIS VASCO, priority 2016, dated 2022).
# Experiments:
# [1] = system: left ventricle of a rat heart; settings: concentrations of 10^-6 M; in vitro; without affecting left ventricular heart rate or pressure; cited from earlier work
# mdx mice [2] = test: Grip strength of dystrophic mdx mice; type: in vivo, mouse; settings: 0.25 mg/mL in drinking water, one-month old mdx mice
# Experimental: One-month old male dystrophic mdx mice supplied by Jackson Laboratory (https://www.jax.org/strain/001801) were used. The biological assays for measuring the effect of the Ahulken (AHK) compounds on muscle function were performed with one-month old mice, whereas the in vivo assays for determining the effect on the heart and CNS were performed with four-month old mice. The one-month old mice were treated with compound AHK1 or compound AHK2 for 5 weeks, where said compounds were administered in drinking water at a concentration of 0.25 mg/mL. The muscle strength of the front paws was measured every week using a grip strength meter and the obtained value was normalized by the body weight of the animal. To that end, the indications described in the TREAT-NMD Neuromuscular Network protocol (http://www.treat-nmd.eu/downloads/file/sops/dmd/MDX/DMD_M.2.2.001.pdf) were followed.
# mdx mice [3] = test: Exacerbated defense response (freezing) after acute stress in mdx mice; type: in vivo, mouse; settings: four-month old mdx mice; five-week treatment, 0.25 mg/mL in drinking water; FIG. 7
# Experimental: To determine the effect of the compounds according to the invention on the heart and CNS, four-month old mice were treated for 5 weeks with compound AHK2 in drinking water at a concentration of 0.25 mg/mL. The four-month old mdx mice show an exacerbated defense response after acute stress which is independent of motor, cardiac and respiratory deficiencies, and is controlled by central mechanisms (FIG. 7). Acute stress was brought about by means of manual immobilizations for 15 seconds in a posture commonly used for performing intraperitoneal injections. After acute stress, the mice are monitored for 1 minute and the % of freezing time or tonic immobility periods of at least 1 second with 90% immobility sensitivity is calculated.
# [4] = molecular target: T1, RyR1-calstabin1 interaction (Homo sapiens, UniProt P21817+P62942); test: RyR1-calstabin1 interaction by in situ PLA in human myotubes under SIN1 nitro-oxidative stress; type: cell-based; settings: pre-treated 12 hours at 150 nM; SIN1 5 mM 30 minutes; FIG. 3
# T1 construct: endogenous in cells; host or cells: LHCN-M2 human myotubes (differentiated for 9 days)
# Experimental: This assay was carried out in human control myotubes LHCN-M2 after 9 days in differentiation medium. Said myotubes were pre-treated for 12 hours with compounds AHK1 and AHK2 at a concentration of 150 nM. After treatment, the myotubes were subjected to peroxynitrite-induced nitro-oxidative stress by means of the addition of SIN1 (5 mM) for 30 minutes. RyR1-calstabin colocalization was analyzed by means of the in situ proximity ligation technique (in situ PLA) for which Sigma's Duolink II Network Fluorescence Kit and RyR1- and calstabin 1-specific antibodies were used. This technique allows detecting the exact location of two antigens located at a distance less than 40 nm from one another. To determine RyR1-calstabin-1 colocalization, 3 photographs were quantified for each condition with about 9 myotubes per field, using Image J computer software (http://rsb.info.nih.gov/ij/download.html). The colocalization area in each image was normalized to the myosin expression area, which was determined by means of immunofluorescence with a fluorescein-conjugated specific antibody.
# mdx mice [5] = test: Muscle degeneration/regeneration: percentage of central nuclei in muscle cryosections of mdx mice; type: in vivo, mouse; settings: 5-week treatment of mdx mice; 0.25 mg/mL in drinking water; FIG. 5
# Experimental: After concluding the 5-week treatment, the tibialis anterior muscle was obtained and processed for subsequent biochemical and immunohistological analysis to determine the degree of muscle damage. Cell-death derived regeneration was determined in muscle cryosections by means of quantifying the percentage of central nuclei using standard immunofluorescence techniques for detecting collagen IV and cell nuclei.
# mdx mice [6] = test: Isoproterenol-induced cardiomyopathy in mdx mice (Evans Blue uptake); type: in vivo, mouse; settings: four-month old mdx mice; 5-week treatment, 0.25 mg/mL in drinking water; FIG. 8
# Experimental: The myocardium of the four-month old dystrophic mdx mice is highly susceptible to mechanical stress and the compound isoproterenol induces cardiomyopathy in these mice (FIG. 8). Cardiomyocyte sarcolemma integrity was determined by means of measuring the uptake of Evans Blue dye that accumulates in cardiomyocytes with membrane damage. Evans Blue was administered 24 hours before extracting the hearts at a concentration of 10 mg/ml by means of intraperitoneal injection (10 μl/g of body weight). Damage with isoproterenol was carried out by means of 3 sequential intraperitoneal injections of beta-isoproterenol (350 ng/g of body weight) 18, 20 and 22 hours after administering Evans Blue in order to determine the degree of muscle damage. Cell-death derived regeneration was determined in muscle cryosections by means of quantifying the percentage of central nuclei, using standard immunofluorescence techniques for detecting collagen IV and cell nuclei.
# [7] = system: human control myotubes LHCN-M2; test: In vitro toxicity in human myotubes, CytoTox 96 colorimetric assay; type: cell-based; settings: 24 hours of incubation
# Experimental: These assays were carried out in human control myotubes LHCN-M2 after 14 days in differentiation medium. To determine the toxicity of the different analyzed compounds, particularly AHK1 and AHK2 according to the invention, these compounds were added to the culture medium for 24 hours at 37° C. at different concentrations (0-2 mM). For comparison purposes, the same assay was performed by adding reference compound S-107. Cell viability was determined by means of Cytotox 96 (Promega) colorimetric assay following instructions in the manual.
# [8] = system: fibers isolated from mouse flexor digitorum brevis muscle (dystrophic MDX fibers); test: Baseline intracellular calcium levels in mouse muscle fibers (Fura 2-AM); type: cell-based; settings: 150 nM, overnight treatment; FIG. 2
# Experimental: Fibers isolated from mouse flexor digitorum brevis muscle were cultured overnight in the presence or absence of compounds AHK1 and AHK2 at a concentration of 150 nM. Baseline intracellular calcium levels were evaluated by means of incubating the fibers with Fura 2-AM ratiometric fluorochrome (4 μM) and pluronic acid (0.02%) for 30 minutes at 37° C., in the culture medium. The fibers were viewed with a high-resolution digital camera and intracellular [Ca^2+] was estimated by means of a 340 nm/380 nm excitation ratio.
# T1 sequence (P21817 whole entry): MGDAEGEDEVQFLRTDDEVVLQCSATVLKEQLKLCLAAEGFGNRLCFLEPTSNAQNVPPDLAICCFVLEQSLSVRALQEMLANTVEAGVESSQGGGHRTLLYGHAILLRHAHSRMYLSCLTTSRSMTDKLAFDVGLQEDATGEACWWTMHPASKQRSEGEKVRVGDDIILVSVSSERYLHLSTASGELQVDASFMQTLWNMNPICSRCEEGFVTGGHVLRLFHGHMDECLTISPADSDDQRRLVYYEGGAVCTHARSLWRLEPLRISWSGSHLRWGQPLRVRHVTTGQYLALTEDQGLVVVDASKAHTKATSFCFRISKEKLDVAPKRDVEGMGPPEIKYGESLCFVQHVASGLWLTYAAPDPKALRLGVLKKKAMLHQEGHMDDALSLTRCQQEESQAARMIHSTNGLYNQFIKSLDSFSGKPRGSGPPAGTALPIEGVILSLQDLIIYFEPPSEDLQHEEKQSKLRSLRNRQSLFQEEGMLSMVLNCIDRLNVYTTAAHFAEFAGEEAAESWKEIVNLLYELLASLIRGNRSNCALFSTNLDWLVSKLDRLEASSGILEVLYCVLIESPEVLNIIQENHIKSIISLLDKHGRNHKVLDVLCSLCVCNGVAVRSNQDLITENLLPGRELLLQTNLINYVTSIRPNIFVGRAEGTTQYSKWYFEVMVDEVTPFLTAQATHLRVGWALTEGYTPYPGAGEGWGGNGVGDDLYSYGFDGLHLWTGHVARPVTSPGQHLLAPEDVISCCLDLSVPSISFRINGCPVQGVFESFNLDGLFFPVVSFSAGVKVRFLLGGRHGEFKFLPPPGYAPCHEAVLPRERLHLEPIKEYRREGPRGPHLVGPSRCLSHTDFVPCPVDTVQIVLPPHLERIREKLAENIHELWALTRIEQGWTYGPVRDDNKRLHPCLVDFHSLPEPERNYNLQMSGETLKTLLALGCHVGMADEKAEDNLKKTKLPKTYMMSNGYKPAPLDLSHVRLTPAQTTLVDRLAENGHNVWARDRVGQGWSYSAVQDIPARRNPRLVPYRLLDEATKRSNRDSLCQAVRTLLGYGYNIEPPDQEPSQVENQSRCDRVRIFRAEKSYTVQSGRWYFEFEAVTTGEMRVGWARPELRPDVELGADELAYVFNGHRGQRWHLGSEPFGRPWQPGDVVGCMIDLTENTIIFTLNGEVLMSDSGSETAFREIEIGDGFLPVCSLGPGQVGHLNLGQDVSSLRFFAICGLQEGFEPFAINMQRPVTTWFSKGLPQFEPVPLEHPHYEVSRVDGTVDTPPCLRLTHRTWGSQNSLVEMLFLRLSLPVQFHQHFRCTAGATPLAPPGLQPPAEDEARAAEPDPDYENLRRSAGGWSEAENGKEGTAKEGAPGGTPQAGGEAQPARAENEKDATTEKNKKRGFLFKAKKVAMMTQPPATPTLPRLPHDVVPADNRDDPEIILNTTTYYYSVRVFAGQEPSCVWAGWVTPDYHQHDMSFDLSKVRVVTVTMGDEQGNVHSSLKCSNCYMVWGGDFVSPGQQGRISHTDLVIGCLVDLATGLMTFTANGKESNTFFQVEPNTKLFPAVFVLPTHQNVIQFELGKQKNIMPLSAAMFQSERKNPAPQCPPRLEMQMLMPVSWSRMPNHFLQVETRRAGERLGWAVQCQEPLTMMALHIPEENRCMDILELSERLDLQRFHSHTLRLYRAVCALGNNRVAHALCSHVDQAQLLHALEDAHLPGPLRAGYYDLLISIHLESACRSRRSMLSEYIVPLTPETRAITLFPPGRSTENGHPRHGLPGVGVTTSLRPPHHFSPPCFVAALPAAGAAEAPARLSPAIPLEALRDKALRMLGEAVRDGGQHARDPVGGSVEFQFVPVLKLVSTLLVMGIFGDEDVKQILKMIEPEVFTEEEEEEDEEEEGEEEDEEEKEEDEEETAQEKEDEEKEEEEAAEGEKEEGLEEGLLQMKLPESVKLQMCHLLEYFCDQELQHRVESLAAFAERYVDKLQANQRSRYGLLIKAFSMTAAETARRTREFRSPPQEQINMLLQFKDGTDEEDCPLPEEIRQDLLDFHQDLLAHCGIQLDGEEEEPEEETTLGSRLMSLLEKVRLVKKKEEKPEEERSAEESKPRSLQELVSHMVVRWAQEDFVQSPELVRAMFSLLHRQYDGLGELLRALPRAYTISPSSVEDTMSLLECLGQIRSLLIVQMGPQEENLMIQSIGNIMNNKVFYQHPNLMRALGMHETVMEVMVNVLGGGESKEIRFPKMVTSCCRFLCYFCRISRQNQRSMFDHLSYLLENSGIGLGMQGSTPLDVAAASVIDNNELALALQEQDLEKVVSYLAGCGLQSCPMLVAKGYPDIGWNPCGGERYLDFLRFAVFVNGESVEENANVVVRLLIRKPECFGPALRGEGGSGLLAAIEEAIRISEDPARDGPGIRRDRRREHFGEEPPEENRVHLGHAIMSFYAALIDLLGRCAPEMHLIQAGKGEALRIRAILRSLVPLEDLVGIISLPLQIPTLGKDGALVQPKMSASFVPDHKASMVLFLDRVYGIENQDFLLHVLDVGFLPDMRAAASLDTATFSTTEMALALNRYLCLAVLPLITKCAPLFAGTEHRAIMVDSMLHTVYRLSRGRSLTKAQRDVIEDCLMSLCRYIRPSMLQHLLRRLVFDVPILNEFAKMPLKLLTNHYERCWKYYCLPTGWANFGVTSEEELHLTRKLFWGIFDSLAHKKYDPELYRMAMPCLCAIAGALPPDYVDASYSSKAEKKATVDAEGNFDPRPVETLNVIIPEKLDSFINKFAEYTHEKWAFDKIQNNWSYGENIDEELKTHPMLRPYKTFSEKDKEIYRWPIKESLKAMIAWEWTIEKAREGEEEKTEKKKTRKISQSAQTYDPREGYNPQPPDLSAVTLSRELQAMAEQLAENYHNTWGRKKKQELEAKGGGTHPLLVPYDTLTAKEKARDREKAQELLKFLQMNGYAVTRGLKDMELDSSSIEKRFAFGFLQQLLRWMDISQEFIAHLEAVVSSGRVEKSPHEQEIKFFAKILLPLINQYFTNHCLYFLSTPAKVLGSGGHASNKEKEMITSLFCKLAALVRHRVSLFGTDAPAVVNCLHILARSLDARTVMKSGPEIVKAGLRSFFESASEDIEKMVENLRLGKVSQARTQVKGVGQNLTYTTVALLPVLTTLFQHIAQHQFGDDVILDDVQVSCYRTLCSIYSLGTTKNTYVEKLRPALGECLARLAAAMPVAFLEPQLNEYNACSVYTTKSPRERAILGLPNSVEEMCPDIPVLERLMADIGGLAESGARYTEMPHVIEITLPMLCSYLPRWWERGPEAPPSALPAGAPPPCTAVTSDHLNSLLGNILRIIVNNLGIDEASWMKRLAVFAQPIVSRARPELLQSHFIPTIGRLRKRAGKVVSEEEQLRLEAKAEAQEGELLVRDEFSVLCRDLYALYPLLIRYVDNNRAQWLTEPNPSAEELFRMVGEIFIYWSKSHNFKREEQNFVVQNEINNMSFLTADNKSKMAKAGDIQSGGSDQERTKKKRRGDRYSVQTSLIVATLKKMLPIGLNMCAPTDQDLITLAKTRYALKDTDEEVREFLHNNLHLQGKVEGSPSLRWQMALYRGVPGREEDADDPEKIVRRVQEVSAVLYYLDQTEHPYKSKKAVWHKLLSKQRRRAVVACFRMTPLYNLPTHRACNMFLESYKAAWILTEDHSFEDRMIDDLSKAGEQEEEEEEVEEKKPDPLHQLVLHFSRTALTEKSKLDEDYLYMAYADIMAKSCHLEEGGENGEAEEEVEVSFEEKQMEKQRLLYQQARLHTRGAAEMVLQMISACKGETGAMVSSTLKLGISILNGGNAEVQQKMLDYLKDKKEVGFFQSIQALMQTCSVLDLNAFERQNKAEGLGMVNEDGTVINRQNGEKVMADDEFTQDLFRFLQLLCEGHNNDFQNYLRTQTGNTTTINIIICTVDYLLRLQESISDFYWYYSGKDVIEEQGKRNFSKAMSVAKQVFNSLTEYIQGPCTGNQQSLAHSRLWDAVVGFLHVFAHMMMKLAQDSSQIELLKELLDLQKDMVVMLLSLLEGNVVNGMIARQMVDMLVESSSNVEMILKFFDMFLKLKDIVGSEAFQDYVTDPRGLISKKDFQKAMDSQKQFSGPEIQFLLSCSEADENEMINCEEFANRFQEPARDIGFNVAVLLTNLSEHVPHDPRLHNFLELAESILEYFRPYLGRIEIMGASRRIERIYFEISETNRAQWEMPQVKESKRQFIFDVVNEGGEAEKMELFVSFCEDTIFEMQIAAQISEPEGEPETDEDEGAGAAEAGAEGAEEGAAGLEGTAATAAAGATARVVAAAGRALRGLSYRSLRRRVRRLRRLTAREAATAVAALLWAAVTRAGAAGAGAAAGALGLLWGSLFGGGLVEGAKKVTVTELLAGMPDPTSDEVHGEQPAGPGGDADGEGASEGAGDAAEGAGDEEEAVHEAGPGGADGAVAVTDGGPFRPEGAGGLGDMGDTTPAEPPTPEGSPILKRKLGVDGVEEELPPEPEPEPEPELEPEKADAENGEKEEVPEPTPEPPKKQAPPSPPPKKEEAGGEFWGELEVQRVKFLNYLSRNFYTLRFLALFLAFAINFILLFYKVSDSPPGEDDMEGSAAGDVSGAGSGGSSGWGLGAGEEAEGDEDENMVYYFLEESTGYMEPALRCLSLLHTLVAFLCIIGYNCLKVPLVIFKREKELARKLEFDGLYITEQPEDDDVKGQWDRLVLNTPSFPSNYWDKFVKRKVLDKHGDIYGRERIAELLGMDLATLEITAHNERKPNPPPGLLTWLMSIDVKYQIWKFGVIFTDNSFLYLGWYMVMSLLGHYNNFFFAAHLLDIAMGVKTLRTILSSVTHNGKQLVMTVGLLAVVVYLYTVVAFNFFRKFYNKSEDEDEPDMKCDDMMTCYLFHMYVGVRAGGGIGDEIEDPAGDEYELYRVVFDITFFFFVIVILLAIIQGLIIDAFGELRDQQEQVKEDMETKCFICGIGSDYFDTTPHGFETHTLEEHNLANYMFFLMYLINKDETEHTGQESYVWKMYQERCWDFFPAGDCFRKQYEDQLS
# T1 sequence (P62942 2-108 limits assumed): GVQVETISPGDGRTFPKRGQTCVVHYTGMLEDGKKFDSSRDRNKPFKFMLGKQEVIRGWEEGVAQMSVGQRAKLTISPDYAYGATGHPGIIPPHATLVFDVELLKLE
compound,measurement,setting,value
"4-[3-(4-benzylpiperidinyl)-propanoyl]-2,3,4,5-tetrahydro-1,4-benzothiazepine [JTV-519]",adrenaline- and caffeine-induced myocardial necrosis,[1],inhibits
"COc1ccc(SCc2cn(CCN(C)C)nn2)cc1 [AHK2, 1-[2-(N,N-dimethylamino)ethyl]-4-[4-(methoxy)phenylthiomethyl]-1H-1,2,3-triazole]",grip strength compared to untreated littermates,mdx mice [2]; after 2 weeks of treatment,increased significantly
same,increase of muscle strength,"mdx mice [2]; after 5 weeks of treatment, FIG. 4",20%
same,exacerbated defense response-related CNS phenotype (% of freezing time after acute stress),mdx mice [3],significantly improves
same,dissociation of the RyR1-Calst1 complex in the presence of SIN1,[4],partially prevented
same,percentage of central nuclei,mdx mice [5],significantly reduced
same,cardiomyocyte sarcolemma integrity (Evans Blue uptake),mdx mice [6],increases
same,isoproterenol-induced damage of the myocardium,mdx mice [6],protects the myocardium from isoproterenol-induced damage
same,in vitro acute toxicity against human myotubes,"[7]; concentrations between 10 nM and 2 mM, FIG. 1",do not show in vitro acute toxicity
same,intracellular calcium levels at rest in MDX fibers,[8],brought intracellular calcium levels back to the control levels
"COc1ccc(SCc2cn(CC(=O)O)nn2)cc1 [Example 11, 1-carboxymethyl-4-[4-(methoxy)phenylthiomethyl]-1H-1,2,3-triazole]",melting point,,163 to 170 °C
"COc1cccc(S(=O)(=O)Cc2cn(CC(=O)O)nn2)c1 [Example 22, 1-carboxymethyl-4-[3-(methoxy)phenylsulfonylmethyl]-1H-1,2,3-triazole]",melting point,,106 to 115 °C
"O=C(O)Cn1cc(CSc2cccc(Cl)c2)nn1 [Example 23, 1-carboxymethyl-4-[3-(chloro)phenylthiomethyl]-1H-1,2,3-triazole]",melting point,,146 to 148 °C
"COc1ccc2c(c1)CN(C)CCS2 [Example S-107, reference compound]",cellular toxicity,[7]; concentration of 1 mM,100%
